# Source: ChEMBL document CHEMBL1201862, “PubChem BioAssay data set” (2004)
#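 48-hour exposure; five concentrations; linearly interpolated endpoints. Here, GI50 denotes the concentration required for 50% inhibition of growth.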 Activity calls are given as the source filed them. No stated cut-off is given here; in the data, active = GI50 up to about 1.1 µM and inactive = higher.
# Assays:
# Experiment in all cases: NCI tumour cell line growth inhibition, 48 h
# DMS-273 = test system: DMS-273
# HCT-116 = test system: HCT-116
# NCI-H226 = test system: NCI-H226
# OVCAR-8 = test system: OVCAR-8
# SN12C = test system: SN12C
# TK-10 = test system: TK-10
# UO-31 = test system: UO-31
# XF498 = test system: XF498
# HCC 2998 = test system: HCC 2998
# HOP-92 = test system: HOP-92
# OVCAR-5 = test system: OVCAR-5
# RPMI-8226 = test system: RPMI-8226
# SR = test system: SR
# HOP-62 = test system: HOP-62
# MCF7 = test system: MCF7
# BT-549 = test system: BT-549
# DU-145 = test system: DU-145
# Hs-578T = test system: Hs-578T
# MDA-MB-231 = test system: MDA-MB-231
# MDA-MB-435 = test system: MDA-MB-435
SMILES,GI50 (DMS-273),GI50 (HCT-116),GI50 (NCI-H226),GI50 (OVCAR-8),GI50 (SN12C),GI50 (TK-10),GI50 (UO-31),GI50 (XF498),GI50 (HCC 2998),GI50 (HOP-92),GI50 (OVCAR-5),GI50 (RPMI-8226),GI50 (SR),GI50 (HOP-62),GI50 (MCF7),GI50 (BT-549),GI50 (DU-145),GI50 (Hs-578T),GI50 (MDA-MB-231),GI50 (MDA-MB-435)
CC1(C)OP23(NC(=O)OC2(C(F)(F)F)c2ccccc2O3)OC1(C)C (stereo not given),> 100 µM (inactive),> 100 µM (inactive),> 100 µM (inactive),> 100 µM (inactive),> 100 µM (inactive),> 100 µM (inactive),> 100 µM (inactive),> 100 µM (inactive),,,,,,,,,,,,
C[Si](C)(C)/C=C/CN1C(=O)CCC1=O,> 100 µM (inactive),> 100 µM (inactive),,,> 100 µM (inactive),> 100 µM (inactive),> 100 µM (inactive),> 100 µM (inactive),> 100 µM (inactive),> 100 µM (inactive),> 100 µM (inactive),> 100 µM (inactive),> 100 µM (inactive),,,,,,,
COc1nc(SC)nc2c1cnn2C1OC(C(O)CO)C(OC)C1O (stereo not given),> 100 µM (inactive),78.2 µM (inactive),> 100 µM (inactive),> 100 µM (inactive),> 100 µM (inactive),,34.9 µM (inactive),> 100 µM (inactive),> 100 µM (inactive),,> 100 µM (inactive),63.8 µM (inactive),,> 100 µM (inactive),> 62.4 µM (inactive),,,,,
COc1cc(C2C(C(=O)O)=C(CO)Oc3cc4c(cc32)OCO4)cc(OC)c1O (stereo not given),> 100 µM (inactive),> 100 µM (inactive),,> 100 µM (inactive),> 100 µM (inactive),> 100 µM (inactive),> 100 µM (inactive),,,> 100 µM (inactive),,> 100 µM (inactive),,> 100 µM (inactive),,,,,,
O=C(O)Cc1cc(F)ccc1C(=O)O,,> 100 µM (inactive),,> 100 µM (inactive),> 100 µM (inactive),> 100 µM (inactive),> 100 µM (inactive),,> 100 µM (inactive),> 100 µM (inactive),> 100 µM (inactive),> 100 µM (inactive),77.1 µM (inactive),> 100 µM (inactive),> 100 µM (inactive),> 100 µM (inactive),> 100 µM (inactive),> 100 µM (inactive),> 100 µM (inactive),> 100 µM (inactive)
O=c1[nH]c(=O)n(C2CC(O)C(CO)O2)cc1C(OCC(F)(F)F)OCC(F)(F)F (stereo not given),> 100 µM (inactive),,,> 100 µM (inactive),> 100 µM (inactive),> 100 µM (inactive),> 100 µM (inactive),> 100 µM (inactive),> 100 µM (inactive),> 100 µM (inactive),> 100 µM (inactive),> 100 µM (inactive),,> 100 µM (inactive),,,,,,
Cc1nc2ccccc2n1C(=O)c1c(F)c(F)c(F)c(F)c1F,,4.14 µM (inactive),18.8 µM (inactive),17.7 µM (inactive),6.01 µM (inactive),18.3 µM (inactive),17 µM (inactive),,17.6 µM (inactive),11.7 µM (inactive),19 µM (inactive),4.15 µM (inactive),2.34 µM (inactive),23.9 µM (inactive),5.12 µM (inactive),21 µM (inactive),26.5 µM (inactive),26.5 µM (inactive),16.2 µM (inactive),4.99 µM (inactive)
O=C(NN1C(=O)CS(=O)(=O)C1c1ccc(Cl)c(Cl)c1)c1ccncc1 (stereo not given),> 31.6 µM (inactive),> 87.7 µM (inactive),> 100 µM (inactive),> 100 µM (inactive),> 100 µM (inactive),,> 100 µM (inactive),> 100 µM (inactive),> 100 µM (inactive),> 100 µM (inactive),> 62.2 µM (inactive),> 41.7 µM (inactive),,> 100 µM (inactive),98.2 µM (inactive),,,,,
C[N+](C)([O-])CCOc1cc2c(c3ccccc13)-c1ccccc1C2=O,16.3 µM (inactive),6.25 µM (inactive),15.7 µM (inactive),6.27 µM (inactive),9.08 µM (inactive),,17.8 µM (inactive),16.4 µM (inactive),13.7 µM (inactive),7.66 µM (inactive),24 µM (inactive),12.3 µM (inactive),,14.2 µM (inactive),11.7 µM (inactive),,,,,
CN(C)CCNC(=O)c1cccc2ccc(-c3ccc(F)cc3)nc12,2.82 µM (inactive),3.03 µM (inactive),3.53 µM (inactive),3.3 µM (inactive),4.85 µM (inactive),,2.61 µM (inactive),2.94 µM (inactive),6.46 µM (inactive),4.25 µM (inactive),7.55 µM (inactive),3.31 µM (inactive),,11.7 µM (inactive),3.56 µM (inactive),,,,,
Cc1cnc(/N=c2\sc(C)cn2-c2ncc(C)s2)s1,,> 100 µM (inactive),> 100 µM (inactive),> 100 µM (inactive),> 100 µM (inactive),> 100 µM (inactive),> 100 µM (inactive),,> 100 µM (inactive),> 100 µM (inactive),> 100 µM (inactive),> 100 µM (inactive),> 100 µM (inactive),> 100 µM (inactive),> 100 µM (inactive),> 100 µM (inactive),> 100 µM (inactive),> 100 µM (inactive),> 100 µM (inactive),> 100 µM (inactive)
N#C/N=N/c1cc(Cl)c(/N=N/C#N)cc1Cl,> 100 µM (inactive),> 100 µM (inactive),> 100 µM (inactive),> 100 µM (inactive),> 100 µM (inactive),> 100 µM (inactive),,> 100 µM (inactive),> 100 µM (inactive),> 100 µM (inactive),> 100 µM (inactive),,34.8 µM (inactive),> 100 µM (inactive),,,,,,
O=[N+]([O-])c1ccc2[nH]c3c(-c4ccccc4)nccc3c2c1,11.9 µM (inactive),17.1 µM (inactive),9.75 µM (inactive),22 µM (inactive),25.1 µM (inactive),,4.41 µM (inactive),29.4 µM (inactive),19.5 µM (inactive),16.3 µM (inactive),67.8 µM (inactive),0.796 µM (active),,14.7 µM (inactive),24.8 µM (inactive),,,,,
COC(=O)c1cn(CC(O)CCl)nn1 (stereo not given),,,,> 100 µM (inactive),> 100 µM (inactive),> 100 µM (inactive),> 100 µM (inactive),,> 100 µM (inactive),> 100 µM (inactive),> 100 µM (inactive),> 100 µM (inactive),,> 100 µM (inactive),> 100 µM (inactive),> 100 µM (inactive),> 100 µM (inactive),> 100 µM (inactive),> 100 µM (inactive),> 100 µM (inactive)
O=C(O)C12CCCCC1CCCC2 (stereo not given),> 100 µM (inactive),> 100 µM (inactive),> 100 µM (inactive),> 100 µM (inactive),> 100 µM (inactive),> 100 µM (inactive),,> 100 µM (inactive),> 100 µM (inactive),> 100 µM (inactive),> 100 µM (inactive),> 100 µM (inactive),,> 100 µM (inactive),,,,,,
COc1c(Br)cc(CC(N)=O)c(O)c1Br,> 100 µM (inactive),> 100 µM (inactive),> 100 µM (inactive),> 100 µM (inactive),> 100 µM (inactive),> 100 µM (inactive),> 100 µM (inactive),> 100 µM (inactive),> 100 µM (inactive),> 100 µM (inactive),> 100 µM (inactive),,> 100 µM (inactive),> 100 µM (inactive),,,,,,
C[C@]12CC[C@H]3[C@@H](CCC4=CC(=O)CC[C@@]43C)[C@@H]1CC[C@@H]2C(=O)COS(=O)(=O)c1ccc(Br)cc1,,,13.2 µM (inactive),3.61 µM (inactive),5.97 µM (inactive),18.3 µM (inactive),1.7 µM (inactive),,2.09 µM (inactive),5.94 µM (inactive),18.1 µM (inactive),2.35 µM (inactive),1.4 µM (inactive),17 µM (inactive),8.15 µM (inactive),10 µM (inactive),16.8 µM (inactive),20.4 µM (inactive),6.49 µM (inactive),9.55 µM (inactive)
